Counter-ions that a name gives are not always drawn.
Molecular target: T1, succinate dehydrogenase (Homo sapiens, UniProt P31040)
T1 construct: Fibroblasts [0.75 m Val/I]; endogenous in cells
Assay: Stimulating influence of fumaric acid derivatives on the enzyme activity of succinate dehydrogenase in fibroblasts
Type: cell-based
Conditions: Fibroblasts [0.75 m Val/I]
From the text: Succinate dehydrogenase is part of the mitochondrial membrane and catalyses the […] of succinic acid to fumaric acid within the citrate cycle. Hydrogen is passed to the respiratory chain via the electron transfer flavoprotein. Thus, the activity of succinate dehydrogenase may influence the electron flow of the electron transport chain. The latter, in turn, is linked to the process of oxidative phosphorylation, the malfunction of which is considered a cause for mitochondrial diseases. Consequently, the activity of succinate dehydrogenase may also have an effect on oxidative phosphorylation.

T1 sequence (P31040 43-664): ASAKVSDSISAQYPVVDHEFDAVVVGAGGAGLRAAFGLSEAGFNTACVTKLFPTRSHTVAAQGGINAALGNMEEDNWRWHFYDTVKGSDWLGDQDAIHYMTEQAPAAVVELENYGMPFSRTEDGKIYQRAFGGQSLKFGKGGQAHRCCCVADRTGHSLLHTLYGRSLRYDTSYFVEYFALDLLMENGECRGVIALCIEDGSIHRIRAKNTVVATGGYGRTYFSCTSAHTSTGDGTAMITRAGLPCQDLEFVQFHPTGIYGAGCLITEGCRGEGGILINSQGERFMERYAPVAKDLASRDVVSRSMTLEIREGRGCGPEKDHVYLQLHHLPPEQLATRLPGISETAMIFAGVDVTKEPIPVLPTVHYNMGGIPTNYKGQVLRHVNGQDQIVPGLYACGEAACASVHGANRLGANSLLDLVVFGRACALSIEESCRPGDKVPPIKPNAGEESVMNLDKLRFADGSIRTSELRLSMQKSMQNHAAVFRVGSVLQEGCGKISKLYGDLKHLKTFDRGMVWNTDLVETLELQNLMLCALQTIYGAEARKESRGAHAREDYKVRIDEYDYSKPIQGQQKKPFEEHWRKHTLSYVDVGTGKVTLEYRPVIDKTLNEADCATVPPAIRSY
T1 sequence (P21912 29-280 partner): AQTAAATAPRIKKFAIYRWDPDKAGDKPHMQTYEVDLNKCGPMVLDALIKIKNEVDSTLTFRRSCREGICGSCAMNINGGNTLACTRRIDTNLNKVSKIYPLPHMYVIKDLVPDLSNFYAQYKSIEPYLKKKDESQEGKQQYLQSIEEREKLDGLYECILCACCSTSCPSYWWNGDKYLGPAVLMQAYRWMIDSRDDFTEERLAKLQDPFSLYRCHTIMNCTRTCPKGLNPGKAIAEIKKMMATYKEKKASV
T1 sequence (Q99643 30-169 partner): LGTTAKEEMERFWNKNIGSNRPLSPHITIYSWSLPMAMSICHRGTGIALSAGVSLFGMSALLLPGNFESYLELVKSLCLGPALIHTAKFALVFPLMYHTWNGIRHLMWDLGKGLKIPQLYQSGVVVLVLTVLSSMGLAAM
T1 sequence (O14521 57-159 partner): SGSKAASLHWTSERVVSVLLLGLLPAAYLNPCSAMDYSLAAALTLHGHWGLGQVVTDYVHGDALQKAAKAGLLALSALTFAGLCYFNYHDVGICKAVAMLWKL

SMILES | evaluation of the stimulating influence on the enzyme activity of succinate dehydrogenase (grade in words) | stimulation of the enzyme activity of succinate dehydrogenase (percent in brackets)
CCOC(=O)/C=C/C(=O)[O-].[Ca+] [Calcium monoethyl fumarate] | medium | 
COC(=O)/C=C/C(=O)OC [Dimethyl fumarate] | strong | 838%
CCOC(=O)/C=C/C(=O)[O-].[Mg+] [Magnesium monoethyl fumarate] | weak | 
CCOC(=O)/C=C/C(=O)O [Monoethyl fumarate] | weak | 
CCOC(=O)/C=C/C(=O)[O-].[Zn+] [Zinc monoethyl fumarate] | strong | 107%

From patent publication US20030013761A1, “Use of fumaric acid derivatives for treating mitochondrial diseases” (priority 2000, published 2003)
